Test results reported in patent US6518304B1, “Fungicidal composition” (Sumitomo Chemical Company, Limited, priority 1993, dated 2003).
Read-outs that look alike come from different tables or passages of the source.

Experiments:
[1] = tested on: grape downy mildew fungus; assay: Test Example 9: grape downy mildew, foliage application then inoculation; conditions: grape seedling
Procedure: (§1) Each of plastic pots was filled with sandy loam and sown with grape (Berry A), followed by growing in a greenhouse for 40 days. […] Then, the young seedling was inoculated with a suspension of zoosporangia of grape downy mildew fungus by spraying. After the inoculation, the young seedling was allowed to stand overnight at 23° C. and a high humidity and then grown in a greenhouse for 7 days, after which the infection rate (%) was investigated.

[2] = tested on: gray mold fungi tolerant to benzimidazole type fungicidal compounds; assay: Test Example 12: cucumber gray mold, benzimidazole-tolerant (resistant) fungus; conditions: cucumber seedling
Procedure: Each of plastic pots was filled with sandy loam and sown with cucumber (Sagamihanjiro), followed by growing in a greenhouse for 14 days. […] After air-drying, each of gray mold fungi sensitive and tolerant, respectively, to benzimidazole type fungicidal compounds was inoculated on the surfaces of leaves of the young seedling, and the young seedling was grown in the dark at 10° C. and a high humidity for 4 days, after which the infection rate (%) was investigated.

[3] = tested on: gray mold fungi sensitive to benzimidazole type fungicidal compounds; assay: Test Example 12: cucumber gray mold, benzimidazole-sensitive fungus; conditions: cucumber seedling
Procedure: Each of plastic pots was filled with sandy loam and sown with cucumber (Sagamihanjiro), followed by growing in a greenhouse for 14 days. A wettable powder of test agents prepared according to Formulation Example 41 was diluted to a predetermined concentration with water, and foliage application of the dilution was carried out so as to adhere the dilution sufficiently to the surfaces of leaves of the grown cucumber young seedling. After air-drying, each of gray mold fungi sensitive and tolerant, respectively, to benzimidazole type fungicidal compounds was inoculated on the surfaces of leaves of the young seedling, and the young seedling was grown in the dark at 10° C. and a high humidity for 4 days, after which the infection rate (%) was investigated.

apple scab fungus [4] = assay: Test Example 13: apple scab, foliage application then inoculation; type: in vivo, Venturia inaequalis; conditions: apple seedling
apple scab fungus [5] = assay: Test Example 8: apple scab, foliage application then inoculation; type: in vivo, Venturia inaequalis; conditions: apple seedling
[6] = tested on: tomato late blight fungus; type: in vivo, Phytophthora infestans; conditions: tomato seedling
[7] = tested on: grape downy mildew fungus; assay: Test Example 6: grape downy mildew, foliage application then inoculation; conditions: grape seedling
Procedure: as §1

[8] = tested on: tomato late blight fungus (Phytophthora infestans); type: in vivo; conditions: tomato plant, 1 week at 24° C.
[9] = tested on: grape downy mildew fungus; assay: Test Example 7: grape downy mildew, foliage application then inoculation; conditions: grape seedling
Procedure: as §1

[10] = tested on: gray mold fungi sensitive to benzimidazole type fungicidal compounds; assay: Test Example 17: cucumber gray mold, benzimidazole-sensitive fungus; conditions: cucumber seedling
Procedure: (§2) Each of plastic pots was filled with sandy loam and sown with cucumber (Sagamihanjiro), followed by growing in a greenhouse for 14 days. A wettable powder of test agents prepared according to Formulation Example 59 was diluted to a predetermined concentration with water, and foliage application of the dilution was carried out so as to adhere the dilution sufficiently to the surfaces of leaves of the grown cucumber young seedling. After air-drying, each of gray mold fungi sensitive and tolerant, respectively, to benzimidazole type fungicidal compounds was inoculated on the surfaces of leaves of the young seedling, and the young seedling was grown in the dark at 10° C. and a high humidity for 4 days, after which the infection rate (%) was investigated.

[11] = tested on: grape powdery mildew fungus (Uncinula necator); assay: Test Example 14: grape powdery mildew, spray then inoculation; type: in vivo; conditions: grape plant, 3 weeks at 24° C.
gray mold fungus [12] = assay: Test Example 11: cucumber gray mold, foliage application before inoculation; conditions: cucumber seedling
Procedure: Each of plastic pots was filled with sandy loam and sown with cucumber (Sagamihanjiro), followed by growing in a greenhouse for 14 days. A wettable powder of test agents prepared according to Formulation Example 35 was diluted to a predetermined concentration with water, and foliage application of the dilution was carried out so as to adhere the dilution sufficiently to the surfaces of leaves of the grown cucumber young seedling. After air-drying, gray mold fungus was inoculated on the surfaces of leaves of the young seedling, and the young seedling was grown in the dark at 10° C. and a high humidity for 4 days, after which the infection rate (%) was investigated.

[13] = tested on: tomato late blight fungus (Phytophthora infestans); type: in vivo; conditions: tomato plant, 1 week at 24° C.; remark: listed apart in the source
[14] = tested on: grape powdery mildew fungus (Uncinula necator); assay: Test Example 16: grape powdery mildew, spray then inoculation; type: in vivo; conditions: grape plant, 3 weeks at 24° C.
[15] = tested on: grape downy mildew fungus (Plasmopara viticola); assay: Test Example 2: grape downy mildew, spray then inoculation, infection rate; type: in vivo; conditions: grape plant, 1 week at 24° C.
Text: A grape plant (cultivar: Berry A) was planted in each pot and was sprayed with a sufficient volume of a dilution with a predetermined concentration of a wettable powder obtained according to Formulation Example 5, after the plant put out a fourth leaf.

gray mold fungus [16] = assay: Test Example 4: cucumber gray mold, foliage application after inoculation; conditions: cucumber seedling, applied after inoculation
Procedure: Each of plastic pots was filled with sandy loam and sown with cucumber (Sagamihanjiro), followed by growing in a greenhouse for 14 days. Gray mold fungus was inoculated on the surfaces of leaves of the grown cucumber young seedling, and the young seedling was grown in the dark at 10° C. and a high humidity for 2 days and then at a temperature of 23° C. for 3 days. A wettable powder of test agents prepared according to Formulation Example 11 was diluted to a predetermined concentration with water, and foliage application of the dilution was carried out so as to adhere the dilution sufficiently to the surfaces of leaves of the cucumber young seedling. After the spraying, the young seedling was grown in the dark at 10° C. and a high humidity for 3 days, and then the infection rate (%) was investigated.

[17] = tested on: gray mold fungi tolerant to benzimidazole type fungicidal compounds; assay: Test Example 17: cucumber gray mold, benzimidazole-tolerant (resistant) fungus; conditions: cucumber seedling
Procedure: as §2

[18] = tested on: tomato late blight fungus; type: in vivo, Phytophthora infestans; conditions: tomato seedling; remark: listed apart in the source
gray mold fungus [19] = assay: Test Example 3: cucumber gray mold, foliage application before inoculation; conditions: cucumber seedling, applied before inoculation, 4 days
Procedure: Each of plastic pots was filled with sandy loam and sown with cucumber (Sagamihanjiro), followed by growing in a greenhouse for 14 days. A wettable powder of test agents prepared according to Formulation Example 11 was diluted to a predetermined concentration with water, and foliage application of the dilution was carried out so as to adhere the dilution sufficiently to the surfaces of leaves of the grown cucumber young seedling. After air-drying, gray mold fungus was inoculated on the surfaces of leaves of the young seedling, and the young seedling was grown in the dark at 10° C. and a high humidity for 4 days, after which the infection rate (%) was investigated.

COC(=O)[C@H](C)N(C(=O)Cc1ccccc1)c1c(C)cccc1C [Benalaxyl, methyl N-(2,6-dimethylphenyl)-N-(phenylacetyl)alaninate]
Infection rate (%) ([1]; 1 ppm): 25%

CCCCNC(=O)n1c(NC(=O)OC)nc2ccccc21 [Benomyl, methyl 1-(butylcarbamoyl)-2-benzimidazole-carbamate, reference compound]
Infection rate (%) Resistant fungus ([2]; 10 ppm): 100%
Infection rate (%) Sensitive fungus ([3]; 10 ppm): 20%
Infection rate (%) (apple scab fungus [4]; 20 ppm): 25%

O=C1C2CC=CCC2C(=O)N1SC(Cl)(Cl)Cl (centres unmarked) [Captan, 1,2,3,6-tetrahydro-N-(trichloromethylthio)phthalimide, reference compound]
Infection rate (%) (apple scab fungus [5]; 300 ppm): 20%

N#Cc1c(Cl)c(Cl)c(Cl)c(C#N)c1Cl [Chlorothalonil, tetrachloroisophthalonitrile, reference compound]
Infection rate (%) ([6]; 40 ppm): 20%
Infection rate (%) ([7]; 30 ppm): 20%

CON=C(C(=O)OC)c1ccccc1COc1ccccc1C [Compound (Ia), methyl α-methoxyimino-2-[(2-methylphenoxy)methyl]phenylacetate]
Infection rate (%) Resistant fungus ([2]; 10 ppm): 30%
Infection rate (%) ([8]; 10 ppm): 25%
Infection rate (%) ([6]; 50 ppm): 25%
Infection rate (%) (apple scab fungus [5]; 0.8 ppm): 20%
Infection rate (%) ([9]; 10 ppm): 20%
Infection rate (%) Sensitive fungus ([10]; 10 ppm): 30%
Infection rate (%) ([11]; 1 ppm): 20%
Infection rate (%) (gray mold fungus [12]; 10 ppm): 30%
Infection rate (%) ([13]; 10 ppm): 25%
Infection rate (%) ([1]; 20 ppm): 25%
Infection rate (%) ([14]; 10 ppm): 30%
Infection rate (%) ([15]; 10 ppm): 30%
Infection rate (%) Sensitive fungus ([3]; 10 ppm): 30%
Infection rate (%) (gray mold fungus [16]; 10 ppm): 30%
Infection rate (%) (apple scab fungus [4]; 1 ppm): 20%
Infection rate (%) Resistant fungus ([17]; 10 ppm): 30%
Infection rate (%) ([18]; 100 ppm): 25%
Infection rate (%) (gray mold fungus [19]; 10 ppm): 30%
Infection rate (%) ([7]; 5 ppm): 20%

CNC(=O)C(=NOC)c1ccccc1COc1cccc(Cl)c1 [Compound (Ic), N-methyl-α-methoxyimino-2-[(3-chlorophenoxy)methyl]phenylacetamide]
Infection rate (%) Resistant fungus ([2]; 200 ppm): 20%
Infection rate (%) ([8]; 10 ppm): 25%
Infection rate (%) ([6]; 40 ppm): 20%
Infection rate (%) (apple scab fungus [5]; 5 ppm): 25%
Infection rate (%) ([9]; 10 ppm): 25%
Infection rate (%) Sensitive fungus ([10]; 200 ppm): 20%
Infection rate (%) ([11]; 1 ppm): 20%
Infection rate (%) (gray mold fungus [12]; 200 ppm): 20%
Infection rate (%) ([13]; 10 ppm): 25%
Infection rate (%) ([1]; 100 ppm): 20%
Infection rate (%) ([14]; 10 ppm): 25%
Infection rate (%) ([15]; 10 ppm): 25%
Infection rate (%) Sensitive fungus ([3]; 200 ppm): 20%
Infection rate (%) (gray mold fungus [16]; 200 ppm): 20%
Infection rate (%) (apple scab fungus [4]; 1 ppm): 30%
Infection rate (%) Resistant fungus ([17]; 200 ppm): 20%
Infection rate (%) ([18]; 40 ppm): 20%
Infection rate (%) (gray mold fungus [19]; 200 ppm): 20%
Infection rate (%) ([7]; 5 ppm): 25%

[Cl-].[Cu+2].[Cu+2].[OH-].[OH-].[OH-] [Copper oxychloride, reference compound]
Infection rate (%) ([8]; 500 ppm): 25%
Infection rate (%) ([14]; 500 ppm): 30%

[Cu+2].[O-]c1cccc2cccnc12.[O-]c1cccc2cccnc12 [Copper oxyquinolinolate, copper oxyquinolinolate (8-hydroxyquinolinate), reference compound]
Infection rate (%) ([8]; 50 ppm): 25%
Infection rate (%) ([14]; 200 ppm): 25%

CCNC(=O)NC(=O)C(C#N)=NOC [Cymoxanil, 2-cyano-N-[ethylaminocarbonyl]-2-(methoxyimino)acetamide]
Infection rate (%) ([1]; 40 ppm): 20%

CCOc1ccc(NC(=O)OC(C)C)cc1OCC [Diethofencarb, isopropyl 3,4-diethoxyphenylcarbamate, reference compound]
Infection rate (%) Sensitive fungus ([10]; 10 ppm): 100%
Infection rate (%) Resistant fungus ([17]; 10 ppm): 20%

O=[N+]([O-])c1cc(C(F)(F)F)c(Cl)c([N+](=O)[O-])c1Nc1ncc(C(F)(F)F)cc1Cl [Fluazinam, 3-chloro-N-(3-chloro-5-trifluoromethyl-2-pyridyl)-α,α,α-trifluoro-2,6-dinitro-p-toluidine, reference compound]
Infection rate (%) (gray mold fungus [12]; 1 ppm): 25%

N#Cc1c[nH]cc1-c1cccc2c1OC(F)(F)O2 [Fludioxonil, 4-(2,2-difluoro-1,3-benzodioxol-4-yl)-1H-pyrrole-3-carbonitrile, reference compound]
Infection rate (%) (gray mold fungus [12]; 0.5 ppm): 20%

O=C1c2ccccc2C(=O)N1SC(Cl)(Cl)Cl [Folpet, N-(trichloromethylthio)phthalimide, reference compound]
Infection rate (%) ([9]; 200 ppm): 20%

CCO[PH](=O)O [Fosetyl aluminum, ethyl hydrogenphosphonate]
Infection rate (%) ([1]; 100 ppm): 25%

CC#Cc1cc(C)nc(Nc2ccccc2)n1 [Mepanipyrim, 2-anilino-4-methyl-6-(1-propynyl)pyrimidine, reference compound]
Infection rate (%) (gray mold fungus [12]; 5 ppm): 20%

COCC(=O)N(c1c(C)cccc1C)[C@@H](C)C(=O)OC [Metalaxyl, methyl N-(2,6-dimethylphenyl)-N-(methoxyacetyl)-alaninate, reference compound]
Infection rate (%) ([1]; 1 ppm): 20%
Infection rate (%) ([18]; 5 ppm): 20%

COCC(=O)N(c1c(C)cccc1C)N1CCOC1=O [Oxadixyl, 2-methoxy-N-(2-oxo-1,3-oxazolidin-3-yl)aceto-2′,6′-xylidide]
Infection rate (%) ([1]; 5 ppm): 20%

CC12CC1(C)C(=O)N(c1cc(Cl)cc(Cl)c1)C2=O (centres unmarked) [Procymidone, N-(3,5-dichlorophenyl)-1,2-dimethylcyclopropane-1,2-dicarboxyimide, reference compound]
Infection rate (%) (gray mold fungus [16]; 10 ppm): 25%
Infection rate (%) (gray mold fungus [19]; 10 ppm): 25%

Cc1cc(C)nc(Nc2ccccc2)n1 [Pyrimetanil, 2-anilino-4,6-dimethylpyrimidine, reference compound]
Infection rate (%) (gray mold fungus [12]; 10 ppm): 20%

S1SSSSSSS1 [Sulfur, sulfur, reference compound]
Infection rate (%) ([11]; 500 ppm): 20%

c1ccc2[nH]c(-c3cscn3)nc2c1 [Thiabendazole, 2-(4′-thiazolyl)benzimidazole, reference compound]
Infection rate (%) Resistant fungus ([2]; 30 ppm): 100%
Infection rate (%) Sensitive fungus ([3]; 30 ppm): 25%

COC(=O)NC(=S)Nc1ccccc1NC(=S)NC(=O)OC [Thiophanate-methyl, 1,2-bis(3-methoxycarbonyl-2-thioureido)benzene, reference compound]
Infection rate (%) Resistant fungus ([2]; 10 ppm): 100%
Infection rate (%) Sensitive fungus ([3]; 10 ppm): 25%
Infection rate (%) (apple scab fungus [4]; 10 ppm): 20%

Mancozeb [reference compound]
Infection rate (%) ([13]; 50 ppm): 25%
Infection rate (%) ([15]; 50 ppm): 25%
